According to ChEMBL document CHEMBL1128770, “Amino azoles and azolo-azines as potential hepatoprotectants: Part III” (1995):

Experiments:
Assay type in all cases: functional
Rattus norvegicus [1] = assay: Hepatoprotective activity against thioacetamide(200 mg/kg, sc) induced toxicity in rat at 6 mg/kg dose(po x 7 days), expressed as %protection afforded in various levels of glutamate oxaloacetate transaminase (GOT)
Rattus norvegicus [2] = assay: Hepatoprotective activity against thioacetamide (200 mg/kg, sc) induced toxicity in rat at 6 mg/kg dose (po x 7 days), expressed as %protection afforded in various levels of bilirubin
Rattus norvegicus [3] = assay: Hepatoprotective activity against thioacetamide (200 mg/kg, sc) induced toxicity in rat at 6 mg/kg dose (po x 7 days), expressed as %protection afforded in various levels of alkaline phosphatase (ALP)
Rattus norvegicus [4] = assay: Hepatoprotective activity against thioacetamide(200 mg/kg, sc) induced toxicity in rat at 6 mg/kg dose(po x 7 days), expressed as %protection afforded in various levels of glutamate pyruvate transaminase (GPT)

| Compound | GOT Level (Rattus norvegicus [1]) | Bilurubin Level (Rattus norvegicus [2]) | ALP Level (Rattus norvegicus [3]) | GPT Level (Rattus norvegicus [4]) |
| --- | --- | --- | --- | --- |
| Nc1n[nH]c(N)c1Cc1ccc2c(c1)OCO2 | 75.6 U l-1 | 0.758 mg % | 196.9 U l-1 | 99.2 U l-1 |
| CN(C)c1ccc(Cc2c(N)n[nH]c2N)cc1 | 67.1 U l-1 | 0.568 mg % | 187.1 U l-1 | 93.8 U l-1 |
| CN(C)c1ccc(Cc2c(N)noc2N)cc1 | 114 U l-1 | 0.786 mg % | 206.6 U l-1 | 146.2 U l-1 |
| Cc1ccc(-c2cc(Cc3nnc(N)s3)n(-c3ccccc3)n2)cc1 | 65.2 U l-1 | 0.575 mg % | 196 U l-1 | 87.5 U l-1 |
| CC(=O)Nc1[nH]nc(N)c1Cc1ccc(Cl)cc1 | 96.7 U l-1 | 0.693 mg % | 204 U l-1 | 146 U l-1 |
| Nc1nc(N)nc(Cc2cc(-c3ccc(F)cc3)[nH]n2)n1 | 121.6 U l-1 | 0.807 mg % | 203.2 U l-1 | 129 U l-1 |
| Nc1nc(N)nc(Cc2cc(-c3ccc(Cl)cc3)[nH]n2)n1 | 119 U l-1 | 0.748 mg % | 190.5 U l-1 | 148.5 U l-1 |
| SILYMARIN | 84.5 U l-1 | 0.617 mg % | 199 U l-1 | 110 U l-1 |
| Nc1noc(N)c1Cc1ccc(Cl)cc1 | 106 U l-1 | 0.735 mg % | 201 U l-1 | 112.5 U l-1 |
| CC(=N)S [THIOACETAMIDE] | 128 U l-1 | 0.829 mg % | 218.9 U l-1 | 171.5 U l-1 |
| Nc1noc(N)c1Cc1ccc2c(c1)OCO2 | 101.5 U l-1 | 0.69 mg % | 205.8 U l-1 | 109.3 U l-1 |
| COc1ccc(Cc2c(N)noc2N)cc1 | 99.9 U l-1 | 0.745 mg % | 215.9 U l-1 | 87.4 U l-1 |
| Nc1n[nH]c(N)c1Cc1ccc(Cl)cc1 | 97.5 U l-1 | 0.757 mg % | 205.3 U l-1 | 136.2 U l-1 |
| COc1ccc(Cc2c(N)n[nH]c2N)cc1 | 70.4 U l-1 | 0.619 mg % | 187 U l-1 | 85.5 U l-1 |
